Test system: NCI-H211 tumor spheroids, viability percent test/control
Test: Anticancer human tumor NCI-H211 cell line growth inhibition;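 further: spheroids exposed to agents for seven days before readout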
Conditions: spheroids with HUVEC and MSC; for IC50: curve of first compound; for viability, T/C: stronger effect = lower value
How it was run: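 Complex tumor spheroids combined malignant cells with endothelial cells and mesenchymal stem cells. DNA-damaging drugs and DNA repair inhibitors were tested alone and in combination, at half-log dilutions down from clinical Cmax (top 10 microM if Cmax unknown), 0.25% DMSO final.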

COc1ccc([C@@H](O)c2cc(-c3ncnc4cc(N5CCOCC5)ccc34)c(F)cc2Cl)nn1 + Cn1nnc2c(C(N)=O)ncn2c1=O
IC50 (second compound 1 µM): 6280 nM | IC50 (second compound 3.16 µM): 5810 nM | IC50 (second compound 10 µM): 3890 nM | IC50 (second compound 31.6 µM): < 31.6 nM | IC50 (second compound 100 µM): < 31.6 nM | viability, T/C (second compound 1 µM, first compound 0.0316 µM): 102% | viability, T/C (second compound 1 µM, first compound 0.1 µM): 102% | viability, T/C (second compound 1 µM, first compound 0.316 µM): 90.3% | viability, T/C (second compound 1 µM, first compound 1 µM): 74.5% | viability, T/C (second compound 1 µM, first compound 3.16 µM): 85.3% | viability, T/C (second compound 1 µM, first compound 10 µM): 31.5% | viability, T/C (second compound 3.16 µM, first compound 0.0316 µM): 88.9% | viability, T/C (second compound 3.16 µM, first compound 0.1 µM): 100% | viability, T/C (second compound 3.16 µM, first compound 0.316 µM): 105% | viability, T/C (second compound 3.16 µM, first compound 1 µM): 69.4% | viability, T/C (second compound 3.16 µM, first compound 3.16 µM): 73.2% | viability, T/C (second compound 3.16 µM, first compound 10 µM): 33.3% | viability, T/C (second compound 10 µM, first compound 0.0316 µM): 99% | viability, T/C (second compound 10 µM, first compound 0.1 µM): 88.6% | viability, T/C (second compound 10 µM, first compound 0.316 µM): 84% | viability, T/C (second compound 10 µM, first compound 1 µM): 71.9% | viability, T/C (second compound 10 µM, first compound 3.16 µM): 60.7% | viability, T/C (second compound 10 µM, first compound 10 µM): 21.7% | viability, T/C (second compound 31.6 µM, first compound 0.0316 µM): 41.1% | viability, T/C (second compound 31.6 µM, first compound 0.1 µM): 38.5% | viability, T/C (second compound 31.6 µM, first compound 0.316 µM): 35.1% | viability, T/C (second compound 31.6 µM, first compound 1 µM): 34.6% | viability, T/C (second compound 31.6 µM, first compound 3.16 µM): 21.1% | viability, T/C (second compound 31.6 µM, first compound 10 µM): 7.82% | viability, T/C (second compound 100 µM, first compound 0.0316 µM): 21.6% | viability, T/C (second compound 100 µM, first compound 0.1 µM): 19.3% | viability, T/C (second compound 100 µM, first compound 0.316 µM): 15.9% | viability, T/C (second compound 100 µM, first compound 1 µM): 8.08% | viability, T/C (second compound 100 µM, first compound 3.16 µM): 5.69% | viability, T/C (second compound 100 µM, first compound 10 µM): 2.16%

CC(C)n1c(=O)n(C)c2cnc3cc(F)c(-c4ccc(OCCCN5CCCCC5)nc4)cc3c21 + CC[C@@]1(O)C(=O)OCc2c1cc1n(c2=O)Cc2cc3c(CN(C)C)c(O)ccc3nc2-1
IC50 (second compound 0.003 µM): < 31.6 nM | IC50 (second compound 0.00949 µM): < 31.6 nM | IC50 (second compound 0.03 µM): < 31.6 nM | IC50 (second compound 0.0949 µM): < 31.6 nM | IC50 (second compound 0.3 µM): < 31.6 nM | viability, T/C (second compound 0.003 µM, first compound 0.0316 µM): 19.9% | viability, T/C (second compound 0.003 µM, first compound 0.1 µM): 22% | viability, T/C (second compound 0.003 µM, first compound 0.316 µM): 20% | viability, T/C (second compound 0.003 µM, first compound 1 µM): 18.8% | viability, T/C (second compound 0.003 µM, first compound 3.16 µM): 10.9% | viability, T/C (second compound 0.003 µM, first compound 10 µM): 2.91% | viability, T/C (second compound 0.00949 µM, first compound 0.0316 µM): 0.98% | viability, T/C (second compound 0.00949 µM, first compound 0.1 µM): 0.97% | viability, T/C (second compound 0.00949 µM, first compound 0.316 µM): 1.23% | viability, T/C (second compound 0.00949 µM, first compound 1 µM): 1.31% | viability, T/C (second compound 0.00949 µM, first compound 3.16 µM): 1.09% | viability, T/C (second compound 0.00949 µM, first compound 10 µM): 0.52% | viability, T/C (second compound 0.03 µM, first compound 0.0316 µM): 1.27% | viability, T/C (second compound 0.03 µM, first compound 0.1 µM): 0.81% | viability, T/C (second compound 0.03 µM, first compound 0.316 µM): 0.82% | viability, T/C (second compound 0.03 µM, first compound 1 µM): 0.85% | viability, T/C (second compound 0.03 µM, first compound 3.16 µM): 0.81% | viability, T/C (second compound 0.03 µM, first compound 10 µM): 0.5% | viability, T/C (second compound 0.0949 µM, first compound 0.0316 µM): 0.98% | viability, T/C (second compound 0.0949 µM, first compound 0.1 µM): 1.01% | viability, T/C (second compound 0.0949 µM, first compound 0.316 µM): 0.97% | viability, T/C (second compound 0.0949 µM, first compound 1 µM): 0.94% | viability, T/C (second compound 0.0949 µM, first compound 3.16 µM): 1% | viability, T/C (second compound 0.0949 µM, first compound 10 µM): 0.57% | viability, T/C (second compound 0.3 µM, first compound 0.0316 µM): 1.06% | viability, T/C (second compound 0.3 µM, first compound 0.1 µM): 0.95% | viability, T/C (second compound 0.3 µM, first compound 0.316 µM): 0.85% | viability, T/C (second compound 0.3 µM, first compound 1 µM): 1.2% | viability, T/C (second compound 0.3 µM, first compound 3.16 µM): 1.02% | viability, T/C (second compound 0.3 µM, first compound 10 µM): 0.73%

Reference: PubChem BioAssay AID1845209 (Molecular Pharmacology Branch, DTP, NCI, 2023)
